According to patent US4281009A, “Hydantoin derivatives” (Nippon Zoki Pharmaceutical Co., Ltd., priority 1978, dated 1981):

Assays:
dd-strain male mice [1] = experiment: Inhibitory effect on Tremorine-induced tremor; type: in vivo; conditions: 100 mg/kg intraperitoneal; tremorine 10 mg/Kg
Protocol: 9. Inhibitory effect on Tremorine-induced tremor:
Groups of mice each comprising 10-40 dd-strain male mice were used. Effect of the compounds of the present invention on tremor caused by tremorine was examined. The compounds of the present invention or DPH was given intraperitoneally. 45 minutes thereafter, 10 mg/Kg of tremorine was given intraperitoneally for inducing the tremor.

SART stress mice = experiment: Inhibitory effects on increase of heart rate and elongation of QRS-time in SART stress mice; type: in vivo, mice (dd-strain male); conditions: 9th day, Average ± S.D.
Protocol: SART stress animals used in the tests described below were raised according to a method of Kita, et al. [Folia Pharmacol. Japan.: 71, 195-210 (1975)].
2. Inhibitory effects on increase of heart rate and elongation of QRS-time in stress animals:
Groups of mice each comprising 11 or 12 dd-strain male mice were divided into three groups in the same manner as above and heart rate and QRS-time were determined on the 9th day after initiation of the tests.

[2] = tested on: normal rats and SART stress rats; experiment: Analgesic effect, pain induced by Bradykinin; type: in vivo, rats (SD-strain male)
Protocol: 5.4 Method of measuring a pain induced by Bradykinin:
Groups each comprising 4-8 SD-strain male normal rats and SART stress rats to which SART stress had been applied for 4 days were used. The tests were carried out according to the method of Deffenu et al. [Deffenu, G., Pegrassi, L., & Fumachi. B.; J. Pharm. Pharmacol.; 18, 135 (1966)] and Blane method [Blane, G. F.; J. Pharm. Pharmacol.; 19, 367 (1967)]. The effect judged was shown by ratio of the rats in which the effect was recognized according to the method of Abe, et al. [Abe, Kaneko & Takagi; Folia Pharmacol. Japon.; 67, 9-14 (1971)].

dd-strain male mice [3] = experiment: Antiulcerogenic effect on Takagi's restraint-plus-water-immersing ulcer; type: in vivo; conditions: Mus musculus, ip; for inhibition in vivo at 75 mg/kg: 75 mg/kg intraperitoneal; for inhibition in vivo at 125 mg/kg: 125 mg/kg intraperitoneal
Protocol: 6.1 Antiulcerogenic effect on Takagi's restraint-plus-water-immersing ulcer: Groups each comprising 8-26 dd-strain male mice were used. The tests were carried out according to a method of Takagi, et al. [Chem. Pharm. Bull.; 12, 465 (1964)]. Sum of length of diseased parts in the glandular stomach was measured and it was compared with that of control group. The compounds of the present invention or DPH was given intraperitoneally immediately before the restraint and immersion in water.

[4] = SART stress rats, intraperitoneal 100 mg/kg
[5] = SART stress rats, peroral 100 mg/kg
[6] = normal rats, intraperitoneal 100 mg/kg

Row | SMILES | Inhibitory effect on Tremorine-induced tremor (dd-strain male mice [1]) [%] | Heart rate (SART stress mice; 50 mg/kg/day) [min⁻¹] | QRS-time (SART stress mice; 50 mg/kg/day) | Analgesic effect [2, 4] [%] | Analgesic effect [2, 5] [%] | Analgesic effect [2, 6] [%] | Analgesic effect ([2]; normal rats, peroral 100 mg/kg) [%] | inhibition in vivo at 75 mg/kg (dd-strain male mice [3]) [%] | inhibition in vivo at 150 mg/kg (dd-strain male mice [3]; 150 mg/kg intraperitoneal) [%] | Heart rate (SART stress mice; 100 mg/kg/day) [min⁻¹] | QRS-time (SART stress mice; 100 mg/kg/day) | inhibition in vivo at 125 mg/kg (dd-strain male mice [3]) [%] | Heart rate (SART stress mice; 37.5 mg/kg/day) [min⁻¹] | QRS-time (SART stress mice; 37.5 mg/kg/day) | inhibition in vivo at 25 mg/kg (dd-strain male mice [3]; 25 mg/kg intraperitoneal) [%]
1 | COc1ccc(C2(c3ccc(OC)c(Cl)c3)NC(=O)NC2=O)cc1 (centres unmarked) [Compound 2, 5-(3-chloro-4-methoxyphenyl)-5-(4-methoxyphenyl)hydantoin] | 38 | 698 ± 42 | 12.9 ± 0.8 1/1000 sec | 75 | 30 | 66.7 | 10 | 15.4 | 36.6 |  |  |  |  |  | 
2 | O=C1NC(=O)C(c2cc(O)c(O)c(O)c2)(c2cc(O)c(O)c(O)c2)N1 [Compound 36, 5,5-Bis(3,4,5-trihydroxyphenyl)hydantoin] |  |  |  | 50 | 33.3 | 33.3 | 10 |  |  | 737 ± 65 | 13.8 ± 1.2 1/1000 sec | 31.2 |  |  | 
3 | O=C1NC(=O)C(c2ccc(O)cc2)(c2ccc(O)cc2)N1 [Compound 4, 5,5-Bis(4-hydroxyphenyl)hydantoin] | 54 |  |  | 100 | 40 | 100 | 0 | 39.1 |  |  |  | 53 | 683 ± 61 | 12.2 ± 0.8 1/1000 sec | 14.2
